Assay results as given in patent US20110190249A1, “THERAPEUTIC METHODS AND USES OF SAPOGENINS AND THEIR DERIVATIVES” (PHYTOPHARM PLC, priority 2002, published 2011).

How the values were obtained:
[1] = test system: rat primary cortical neurones; test: Prevention of glutamate-induced neurodegeneration (LDH release), pre-treatment; assay type: cell-based; settings: 30 nM, given 24 h before glutamate; LDH 24 h after glutamate; control = 100
Procedure: The objective of this study was to examine the effects of sarsasapogenin, episarsasapogenin cathylate, episarsasapogenin, epismilagenin and smilagenin on the survival of rat primary cortical neurones exposed to glutamate, which is known to induce neuro degeneration.
Rat cortical neurones were cultured for 10 days; at day 10 the medium was changed to a serum-free defined medium. On day 12, 24 hours before glutamate exposure, cultures were washed and medium was replaced with fresh medium containing positive control (β-oestradiol), test compounds (sarsasapogenin, episarsasapogenin cathylate, episarsasapogenin, epismilagenin and smilagenin) or vehicle control (DMSO, 0.25%) or diosgenin as negative control.
On day 13, cultures were exposed to glutamate. After the incubation period, the cultures were washed with and placed in fresh medium, supplemented with relevant compounds or vehicle to evaluate their protective effects, 24 h after glutamate exposure.
Neuronal cell survival was evaluated by measuring lactate dehydrogenase (LDH) activity released in the media 24 h after test compound treatment or glutamate+test compound exposure, using the CytoTox 96 non-radioactive kit and quantitated by measuring wavelength absorbance at 450 nm.

dopamine (D) 1 receptor = test: Dopamine D1 receptor density in aged rats; assay type: in vivo, rat; settings: aged rats treated 3 months; aged untreated 129.2±36.8, young 157.5±33.2
Procedure: Aged Sprague-Dawley rats aged were divided into different groups, one control and groups treated for 2-3 months with either sarsasapogenin, episarsasapogenin cathylate or smilagenin (18 mg kg^−1 day^−1, n=10). A control group (n=14) of untreated young rats was also included in the study. The daily dose of drug was mixed in a minimum amount of food and was administered every morning separately to each rat.
By contrast, smilagenin and sarsasapogenin treatment in aged rats for 3 months restored the D1 and D2 receptor density (smilagenin 177±10.9; 217±45.7 fmol/mg protein; sarsasapogenin 172.0±44.0; 206.4±60.5 respectively).

[2] = test system: rat primary spinal motor neurones; test: Glutamate-induced neurodegeneration in spinal motor neurones (LDH); assay type: cell-based; settings: control 100 ± 1
Procedure: The objective of this study was to examine the effects of sarsasapogenin and smilagenin on the survival of rat primary spinal motor neurones exposed to glutamate, which is known to induce neurodegeneration in this model of motor neurodegeneration.
Rat motor neurones were prepared according to the method described by (Martinou et al, Neuron, 8, 737-744, 1992). On day 10, medium was removed and the cultures were exposed to glutamate (4 microM) for 10 min at 37° C. in defined medium. After the glutamate exposure, cultures were washed with Dulbecco modified Eagle medium at 37° C. then placed in fresh culture medium containing test compounds. After 48 h, the extent of spinal motor neurone degeneration was determined by measuring the amount of lactate dehydrogenase (LDH) released into the culture medium as above.

C[C@@H]1CC[C@@]2(OC1)O[C@H]1C[C@H]3[C@@H]4CC[C@@H]5C[C@@H](O)CC[C@]5(C)[C@H]4CC[C@]3(C)[C@H]1[C@@H]2C [smilagenin]
Prevention of glutamate-induced neurodegeneration, Mean ± s.e.m (%) [1]: 91 ± 4% | D1 receptor density (dopamine (D) 1 receptor): 177±10.9 fmol/mg protein | Glutamate-induced neurodegeneration in spinal motor neurones, Mean ± s.e.m (%) ([2]; 0.03 nM for 48 h after glutamate 4 microM 10 min): 128 ± 4% | Glutamate-induced neurodegeneration in spinal motor neurones, Mean ± s.e.m (%) ([2]; 3 nM for 48 h after glutamate 4 microM 10 min): 154 ± 1% | Glutamate-induced neurodegeneration in spinal motor neurones, Mean ± s.e.m (%) ([2]; 300 nM for 48 h after glutamate 4 microM 10 min): 144 ± 4%
